SMILES strings stand for the structures. pKi: −log10 of the molar value. Some results are limits rather than exact numbers.

The term pKi denotes −log10 of the Ki, conventionally taken in molar units.

T1 sequence (P03951 388-625 limits assumed): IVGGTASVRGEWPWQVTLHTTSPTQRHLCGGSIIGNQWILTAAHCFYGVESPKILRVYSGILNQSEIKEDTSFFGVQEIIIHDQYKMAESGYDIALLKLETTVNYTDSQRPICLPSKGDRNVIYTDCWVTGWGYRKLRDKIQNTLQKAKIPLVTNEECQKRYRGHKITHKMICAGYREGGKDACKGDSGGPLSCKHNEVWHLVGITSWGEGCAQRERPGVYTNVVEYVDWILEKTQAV
T1 sequence (P03951 19-387 partner limits assumed): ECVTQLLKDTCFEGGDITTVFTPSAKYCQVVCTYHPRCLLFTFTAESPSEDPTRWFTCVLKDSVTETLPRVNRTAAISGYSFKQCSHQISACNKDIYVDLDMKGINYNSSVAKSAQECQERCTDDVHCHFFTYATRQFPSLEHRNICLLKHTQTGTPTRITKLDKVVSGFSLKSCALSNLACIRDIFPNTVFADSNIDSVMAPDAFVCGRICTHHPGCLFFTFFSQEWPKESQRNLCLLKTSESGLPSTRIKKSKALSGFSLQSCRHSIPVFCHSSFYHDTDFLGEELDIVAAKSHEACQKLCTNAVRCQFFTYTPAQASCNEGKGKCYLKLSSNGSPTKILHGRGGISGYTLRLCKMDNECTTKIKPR

This assay addresses T1, purified human Factor XIa (Homo sapiens, UniProt P03951).
T1 construct: purified human Factor XIa; purchased Sekisui Diagnostics
Kind of assay: Factor XIa Assay. It counts as biochemical. Particulars: purified human Factor XIa 40 pM; substrate Z-Gly-Pro-Arg-AFC 100 μM; 50 mM HEPES pH 7.4; read-out: Hu FXIa Ki. As to the method:
The effectiveness of a compound of the present invention as an inhibitor of Coagulation Factor XIa can be determined using a relevant purified serine protease, and an appropriate synthetic substrate. The rate of hydrolysis of the chromogenic or fluorogenic substrate by the relevant serine protease was measured both in the absence and presence of compounds of the present invention. Assays were conducted at room temperature or at 37° C. […] A decrease in the rate of fluorescence change in the presence of inhibitor is indicative of enzyme inhibition. Such methods are known to one skilled in the art. The results of this assay are expressed as the inhibitory constant, Ki.
Factor XIa determinations were made in 50 mM HEPES buffer at pH 7.4 containing 150 mM NaCl, 5 mM CaCl2, and 0.1% PEG 8000 (polyethylene glycol; JT Baker or Fisher Scientific). Determinations were made using purified human Factor XIa at a final concentration of 40 pM (Sekisui Diagnostics) and he synthetic substrate, Z-Gly-Pro-Arg-AFC, TFA salt (Sigma #C0980) at a concentration of 100 μM.
Activity assays were performed by diluting a stock solution of substrate at least tenfold to a final concentration ≤0.1 Km into a solution containing enzyme or enzyme equilibrated with inhibitor. Times required to achieve equilibration between enzyme and inhibitor were determined in control experiments. Initial velocities of product formation in the absence (Vo) or presence of inhibitor (Vi) were measured. Assuming competitive inhibition, and that unity is negligible compared Km/[S], [I]/e, and [I]/e (where [S], [I], and e respectively represent the total concentrations, of substrate, inhibitor and enzyme), the equilibrium constant (Ki) for dissociation of the inhibitor from the enzyme can be obtained from the dependence of Vo/Vi on [I] shown in the following equation. Vo/Vi=1+[I]/Ki
The activities shown by this assay indicate that the compounds of the invention may be therapeutically useful for treating or preventing various cardiovascular and/or cerebrovascular thromboembolic conditions in patients suffering from unstable angina, acute coronary syndrome, refractory angina, myocardial infarction, transient ischemic attacks, atrial fibrillation, stroke such as thrombotic stroke or embolic stroke, venous thrombosis, coronary and cerebral arterial thrombosis, cerebral and pulmonary embolism, atherosclerosis, deep vein thrombosis, disseminated intravascular coagulation, and reocclusion or restenosis of recanalized vessels. The Ki values measured for each of the example compounds of the invention using this assay are reported in the tables above (as “Hu FXIa Ki (nM)”).
Regarding `COC(=O)Nc1ccc2c(c1)NC(=O)C(C)CCCC(C(=O)N1CCC[C@@]3(C1)OC(=O)Nc1ccc(Cl)cc13)c1cc-2ccn1` (single isomer, unassigned) [Example 15d], the pKi was less than 5.30.

In the case of `O=C1Nc2ccc(Cl)c(F)c2[C@@]2(CCCN(C(=O)C3CCCCC(C(=O)O)Nc4ccc(F)cc4-c4ccnc3c4)C2)O1` (single isomer, unassigned) [Example 35a], the pKi was less than 6.06. Consider `Nc1ccc2c(c1)NC(=O)CC/C=C\C[C@@H](C(=O)N1CCC[C@@]3(C1)OC(=O)Nc1ccc(Cl)c(F)c13)c1cc-2ccn1` [Example 20a, (R)-1′-((R,Z)-2^4-amino-4-oxo-3-aza-1(4,2)-pyridina-2(1,2)-benzenacyclodecaphan-7-ene-10-carbonyl)-6-chloro-5-fluorospiro[benzo[d][1,3]oxazine-4,3′-piperidin]-2(1H)-one], for which the pKi was 6.68.

As for `CCOC(=O)C1CCCCC(C(=O)N2CCC[C@@]3(C2)OC(=O)Nc2ccc(Cl)c(F)c23)c2cc(ccn2)-c2cc(F)ccc2N1` (single isomer, unassigned) [Example 34c], the pKi was 6.71. Consider `CCOC(=O)C1CCCCC(C(=O)N2CC[C@@]3(C2)OC(=O)Nc2ccc(Cl)c(F)c23)c2cc(ccn2)-c2cc(F)ccc2N1` (single isomer, unassigned) [Example 36b], for which the pKi was less than 6.06.

As to `COC(=O)Nc1ccc2c(c1)NC(=O)CCCCC(C(=O)N1CCC[C@@]3(C1)OC(=O)Nc1ccc(Cl)c(F)c13)c1cccc-2n1` (stereo partly drawn) [Example 24, methyl (9-((R)-6-chloro-5-fluoro-2-oxo-1,2-dihydrospiro[benzo[d][1,3]oxazine-4,3′-piperidine]-1′-carbonyl)-4-oxo-3-aza-1(2,6)-pyridina-2(1,2)-benzenacyclononaphane-2^4-yl)carbamate], the pKi is less than 6.06.

In the case of `O=C1CCCC[C@H](C(=O)N2CC[C@@]3(C2)OC(=O)Nc2ccc(Cl)cc23)c2nc(c[nH]2)-c2ccc(F)cc2N1` [Example 5a, (R)-6-chloro-1′-((S,Z)-2^4-fluoro-4-oxo-1^1H-3-aza-1(4,2)-imidazola-2(1,2)-benzenacyclononaphane-9-carbonyl)spiro[benzo[d][1,3]oxazine-4,3′-pyrrolidin]-2(1H)-one], the pKi was less than 5.06. The result for `CCOC(=O)C1CCCCC(C(=O)N2CCC[C@@]3(C2)OC(=O)Nc2ccc(Cl)c(F)c23)c2nc(c[nH]2)-c2ccc(NC(=O)OC)cc2N1` (single isomer, unassigned) [Example 32a] reads 6.85. Regarding `COC(=O)Nc1ccc2c(c1)NC(=O)CCCCC[C@@H](C(=O)N1CCC[C@@]3(C1)OC(=O)Nc1ccc(Cl)cc13)c1cc-2ccn1` [Example 16b, methyl ((R)-10-((R)-6-chloro-2-oxo-1,2-dihydrospiro[benzo[d][1,3]oxazine-4,3′-piperidine]-1′-carbonyl)-4-oxo-3-aza-1(4,2)-pyridina-2(1,2)-benzenacyclodecaphane-2^4-yl)carbamate], the pKi is 6.55. Consider `COC(=O)Nc1ccc2c(c1)NC(=O)CCCC[C@H](C(=O)N1CCC[C@@]3(C1)OC(=O)Nc1ccc(Cl)c(F)c13)c1nc-2c(C)[nH]1` (single isomer, unassigned) [Example 12a], for which the pKi is 6.33. For the compound `COC(=O)Nc1ccc2c(c1)NC(=O)CCCC[C@H](C(=O)N1CC[C@@]3(C1)OC(=O)Nc1ccc(Cl)c(F)c13)c1nc-2c(C)[nH]1` [Example 13a, methyl ((S,Z)-9-((R)-6-chloro-5-fluoro-2-oxo-1,2-dihydrospiro[benzo[d][1,3]oxazine-4,3′-pyrrolidine]-1′-carbonyl)-1^5-methyl-4-oxo-1^1H-3-aza-1(4,2)-imidazola-2(1,2)-benzenacyclononaphane-2^4-yl)carbamate], the pKi was 6.71.

Take `O=C1Nc2ccc(Cl)c(F)c2[C@@]2(CCN(C(=O)C3CCCCC(C(=O)O)Nc4ccc(F)cc4-c4ccnc3c4)C2)O1` (single isomer, unassigned) [Example 37a]: the pKi was less than 6.06. With `COC(=O)Nc1ccc2c(c1)NC(=O)[C@@H](C)CCC[C@H](NC(=O)N1CCC[C@@]3(C1)OC(=O)Nc1ccc(Cl)cc13)c1cc-2ccn1` [Example 39, methyl ((5S,9S)-9-((R)-6-chloro-2-oxo-1,2-dihydrospiro[benzo[d][1,3]oxazine-4,3′-piperidine]-1′-carboxamido)-5-methyl-4-oxo-3-aza-1(4,2)-pyridina-2(1,2)-benzenacyclononaphane-2^4-yl)carbamate], the pKi was 6.34. Consider `COC(=O)Nc1ccc2c(c1)NC(=O)[C@H](C)CCC[C@H](NC(=O)N1CCC[C@@]3(C1)OC(=O)Nc1ccc(Cl)cc13)c1cc-2ccn1` [Example 40, methyl ((5R,9S)-9-((R)-6-chloro-2-oxo-1,2-dihydrospiro[benzo[d][1,3]oxazine-4,3′-piperidine]-1′-carboxamido)-5-methyl-4-oxo-3-aza-1(4,2)-pyridina-2(1,2)-benzenacyclononaphane-2^4-yl)carbamate], for which the pKi is less than 5.30.

Regarding `COC(=O)Nc1ccc2c(c1)NC(C(=O)O)CCCCC(C(=O)N1CCC[C@@]3(C1)OC(=O)Nc1ccc(Cl)c(F)c13)c1nc-2c[nH]1` (stereo partly drawn) [Example 33, (Z)-9-((R)-6-chloro-5-fluoro-2-oxo-1,2-dihydrospiro[benzo[d][1,3]oxazine-4,3′-piperidine]-1′-carbonyl)-2^4-((methoxycarbonyl)amino)-1^1H-3-aza-1(4,2)-imidazola-2(1,2)-benzenacyclononaphane-4-carboxylic acid], the pKi was 6.87. The result for `COC(=O)Nc1ccc2c(c1)NC(=O)CC/C=C\C[C@H](C(=O)N1CCC[C@@]3(C1)OC(=O)Nc1ccc(Cl)c(F)c13)c1cc-2ccn1` [Example 22b, methyl ((S,Z)-10-((R)-6-chloro-5-fluoro-2-oxo-1,2-dihydrospiro[benzo[d][1,3]oxazine-4,3′-piperidine]-1′-carbonyl)-4-oxo-3-aza-1(4,2)-pyridina-2(1,2)-benzenacyclodecaphanen-2^4-yl)carbamate] reads less than 6.06; that for `COC(=O)Nc1ccc2c(c1)NC(=O)CCCC[C@H](C(=O)N1CC[C@@]3(C1)OC(=O)Nc1ccc(Cl)c(F)c13)c1ccnc-2c1` [Example 25b, methyl ((S)-9-((R)-6-chloro-5-fluoro-2-oxo-1,2-dihydrospiro[benzo[d][1,3]oxazine-4,3′-pyrrolidine]-1′-carbonyl)-4-oxo-3-aza-1(2,4)-pyridina-2(1,2)-benzenacyclononaphane-2^4-yl)carbamate], less than 6.06. The result for `COC(=O)Nc1ccc2c(c1)NC(=O)CCCC[C@@H](C(=O)N1CCC[C@@]3(C1)OC(=O)Nc1ccc(Cl)cc13)c1cc(F)cc-2c1` [Example 29a, methyl ((R)-9-((R)-6-chloro-2-oxo-1,2-dihydrospiro[benzo[d][1,3]oxazine-4,3′-piperidine]-1′-carbonyl)-1^5-fluoro-4-oxo-3-aza-1(1,3),2(1,2)-dibenzenacyclononaphane-2^4-yl)carbamate] reads 6.65; that for `COC(=O)Nc1ccc2c(c1)NC(=O)CCCC[C@H](C(=O)N1CC[C@@]3(C1)OC(=O)Nc1ccc(Cl)cc13)c1cc-2ccn1` [Example 17b, methyl ((S)-9-((R)-6-chloro-2-oxo-1,2-dihydrospiro[benzo[d][1,3]oxazine-4,3′-pyrrolidine]-1′-carbonyl)-4-oxo-3-aza-1(4,2)-pyridina-2(1,2)-benzenacyclononaphane-2^4-yl)carbamate], less than 5.06.

The values are drawn from US10344039B2, “Macrocyclic spirocarbamate derivatives as factor XIa inhibitors, pharmaceutically acceptable compositions and their use” (MERCK SHARP & DOHME CORP., priority 2015, dated 2019).
